SMILES strings stand for the structures.

What all share (assay type): ADME
What all share (parameters): dose 2 uM
What all share (conditions): 2 µM

One data set concerns the target T1, Acyltransferase (Bacteroides thetaiotaomicron, UniProt Q8A575).
T1 sequence (Q8A575 whole entry): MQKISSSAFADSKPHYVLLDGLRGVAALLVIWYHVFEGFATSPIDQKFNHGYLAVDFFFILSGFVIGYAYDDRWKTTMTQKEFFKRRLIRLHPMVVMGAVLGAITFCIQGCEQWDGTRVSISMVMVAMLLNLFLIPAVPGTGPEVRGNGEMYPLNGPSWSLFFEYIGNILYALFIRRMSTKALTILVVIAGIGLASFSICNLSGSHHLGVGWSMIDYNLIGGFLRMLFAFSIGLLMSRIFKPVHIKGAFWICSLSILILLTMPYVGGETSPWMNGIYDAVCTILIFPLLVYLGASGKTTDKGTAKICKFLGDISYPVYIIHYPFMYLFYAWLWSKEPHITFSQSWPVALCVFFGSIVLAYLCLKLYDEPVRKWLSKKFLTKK
In words: (§1) The drug is tested on Bacteroides thetaiotaomicron strain: VPI-5482 for biotransformation. The drug concentrations were measured before and after a 12-h incubation by liquid-chromatography-coupled mass spectrometry (LC–MS).

Data set [1] concerns the target T2, NADH dehydrogenase/NAD(P)H nitroreductase (Bacteroides thetaiotaomicron, UniProt Q8A8L9).
T2 sequence (Q8A8L9 whole entry): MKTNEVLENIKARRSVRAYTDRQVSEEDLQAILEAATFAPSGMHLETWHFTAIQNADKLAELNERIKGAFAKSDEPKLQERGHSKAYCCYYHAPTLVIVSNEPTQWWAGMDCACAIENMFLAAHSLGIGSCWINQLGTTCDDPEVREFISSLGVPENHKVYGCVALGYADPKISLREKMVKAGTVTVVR
The description is as §1.

For a further data set, the target named is T3, Nitroreductase (Bacteroides thetaiotaomicron, UniProt Q8A911).
T3 sequence (Q8A911 whole entry): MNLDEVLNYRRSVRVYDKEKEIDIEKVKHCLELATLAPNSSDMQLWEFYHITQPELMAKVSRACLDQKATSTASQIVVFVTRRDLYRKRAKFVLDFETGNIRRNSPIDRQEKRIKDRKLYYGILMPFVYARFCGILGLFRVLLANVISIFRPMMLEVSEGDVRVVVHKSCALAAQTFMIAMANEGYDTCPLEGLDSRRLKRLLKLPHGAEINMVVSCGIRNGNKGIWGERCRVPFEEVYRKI
The description is as §1.

Data set [2] deals with T4, Nitroreductase-like protein (Bacteroides thetaiotaomicron, UniProt Q8AB93).
T4 sequence (Q8AB93 whole entry): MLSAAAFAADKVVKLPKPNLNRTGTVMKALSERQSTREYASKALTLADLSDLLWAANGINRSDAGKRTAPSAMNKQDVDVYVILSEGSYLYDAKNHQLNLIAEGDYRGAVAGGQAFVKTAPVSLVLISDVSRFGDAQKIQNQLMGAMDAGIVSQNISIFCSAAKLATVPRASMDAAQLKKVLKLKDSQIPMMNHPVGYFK
The description is as §1.

The target of data set [3] is T5, Acyltransferase 3 domain-containing protein (Phocaeicola dorei, UniProt B6W2J3).
T5 sequence (B6W2J3 whole entry): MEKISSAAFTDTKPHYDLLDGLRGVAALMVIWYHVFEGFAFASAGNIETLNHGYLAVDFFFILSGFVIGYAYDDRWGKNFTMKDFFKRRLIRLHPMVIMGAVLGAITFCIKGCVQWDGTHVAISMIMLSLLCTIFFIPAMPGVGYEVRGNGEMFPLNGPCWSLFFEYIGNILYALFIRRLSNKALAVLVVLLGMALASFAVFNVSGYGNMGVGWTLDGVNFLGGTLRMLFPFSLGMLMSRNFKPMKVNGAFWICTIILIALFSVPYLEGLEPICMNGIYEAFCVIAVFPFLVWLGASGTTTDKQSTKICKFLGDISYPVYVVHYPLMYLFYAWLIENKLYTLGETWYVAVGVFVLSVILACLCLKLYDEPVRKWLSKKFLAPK
In words: (§2) The drug is tested on Bacteroides dorei strain: DSM17855 for biotransformation. The drug concentrations were measured before and after a 12-h incubation by liquid-chromatography-coupled mass spectrometry (LC–MS).

Another data set addresses T6, Esterase (Phocaeicola dorei, UniProt B6W2J6).
T6 sequence (B6W2J6 whole entry): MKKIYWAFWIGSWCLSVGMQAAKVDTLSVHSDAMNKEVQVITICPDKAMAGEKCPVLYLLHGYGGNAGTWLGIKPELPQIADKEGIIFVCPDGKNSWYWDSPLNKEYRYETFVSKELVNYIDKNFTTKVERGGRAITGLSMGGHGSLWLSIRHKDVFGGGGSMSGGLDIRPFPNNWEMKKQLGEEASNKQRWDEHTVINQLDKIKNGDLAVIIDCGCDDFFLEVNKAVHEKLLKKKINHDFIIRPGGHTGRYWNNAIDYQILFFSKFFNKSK
The description is as §2.

Data set [4] addresses T7, Nitroreductase domain-containing protein (Phocaeicola dorei, UniProt B6VU18).
T7 sequence (B6VU18 whole entry): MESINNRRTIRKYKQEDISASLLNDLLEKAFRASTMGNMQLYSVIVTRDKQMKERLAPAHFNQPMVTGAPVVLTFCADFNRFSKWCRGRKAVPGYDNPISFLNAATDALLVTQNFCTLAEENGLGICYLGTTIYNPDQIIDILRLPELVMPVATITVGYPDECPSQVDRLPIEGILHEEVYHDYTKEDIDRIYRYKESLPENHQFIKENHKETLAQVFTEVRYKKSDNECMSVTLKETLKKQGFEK
The data set is described as §2.

Data set [5] has as its target T8, Nitroreductase domain-containing protein (Phocaeicola dorei, UniProt B6W3P3).
T8 sequence (B6W3P3 whole entry): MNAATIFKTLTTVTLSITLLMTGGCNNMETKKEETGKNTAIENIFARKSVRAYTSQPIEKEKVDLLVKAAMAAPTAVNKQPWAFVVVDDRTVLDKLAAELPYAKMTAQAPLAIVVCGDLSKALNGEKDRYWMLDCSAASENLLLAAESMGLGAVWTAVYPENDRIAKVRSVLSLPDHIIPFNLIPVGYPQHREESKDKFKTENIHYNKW
The data set is described as §2.

Data set [6] deals with T9, Steroid 5-alpha reductase C-terminal domain-containing protein (Phocaeicola dorei, UniProt B6W0N3).
T9 sequence (B6W0N3 whole entry): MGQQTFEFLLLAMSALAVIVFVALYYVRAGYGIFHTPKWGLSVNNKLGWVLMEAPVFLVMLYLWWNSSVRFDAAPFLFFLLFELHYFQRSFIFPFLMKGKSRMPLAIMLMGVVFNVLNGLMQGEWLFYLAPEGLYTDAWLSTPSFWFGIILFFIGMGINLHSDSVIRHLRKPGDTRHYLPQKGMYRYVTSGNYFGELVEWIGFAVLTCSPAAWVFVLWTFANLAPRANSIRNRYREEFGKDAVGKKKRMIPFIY
Described as §2.

Consider `C#C[C@]1(O)CC[C@H]2[C@@H]3CCC4=CC(=O)CC[C@@H]4[C@H]3CC[C@@]21CC` [LEVONORGESTREL], for which the “Bacterial Biotransformation” value (on Acyltransferase; in [1]; on Nitroreductase; in data set [2]; in data set [3]; on Esterase) was “Compound NOT metabolized” in each case. Moreover, the entries for the “Bacterial Biotransformation” value in [4], in [5] and in data set [6] were “Compound NOT metabolized”, “Compound NOT metabolized” and “Compound metabolized”, respectively.

Take `CC(=O)OCC(=O)[C@@]1(OC(C)=O)[C@@H](C)C[C@H]2[C@@H]3C[C@H](F)C4=CC(=O)C=C[C@]4(C)[C@@]3(F)[C@@H](O)C[C@@]21C` [DIFLORASONE DIACETATE]: the “Bacterial Biotransformation” value (on Acyltransferase; in data set [1]; on Nitroreductase; in [2]; in data set [3]; on Esterase) was “Compound NOT metabolized” in each case. For the same compound, the “Bacterial Biotransformation” value in data set [4], in [5] and in data set [6] was “Compound NOT metabolized” throughout.

As to `N#Cc1ccc2c(c1)N(CCCN1CCC(O)CC1)c1ccccc1S2` [PERICIAZINE], the “Bacterial Biotransformation” value was “Compound metabolized” on Acyltransferase; “Compound NOT metabolized” in [1]; “Compound NOT metabolized” on Nitroreductase; “Compound NOT metabolized” in data set [2]; “Compound metabolized” in data set [3]; “Compound NOT metabolized” on Esterase. The “Bacterial Biotransformation” value in data set [4], in [5] and in data set [6] was “Compound NOT metabolized” throughout.

As to `CC(=O)OCC(CCn1cnc2cnc(N)nc21)COC(C)=O` [FAMCICLOVIR], the “Bacterial Biotransformation” value was “Compound NOT metabolized” on Acyltransferase; “Compound NOT metabolized” in data set [1]; “Compound NOT metabolized” at Nitroreductase; “Compound NOT metabolized” in data set [2]; “Compound NOT metabolized” in data set [3]; “Compound metabolized” at Esterase. Moreover, the “Bacterial Biotransformation” value in [4], in data set [5] and in data set [6] was “Compound NOT metabolized” in each case.

Consider `COc1ccc([C@@H]2Sc3ccccc3N(CCN(C)C)C(=O)[C@@H]2OC(C)=O)cc1` [DILTIAZEM], for which the “Bacterial Biotransformation” value (on Acyltransferase; in data set [1]; on Nitroreductase; in data set [2]; in data set [3]; on Esterase) was “Compound NOT metabolized” each time. Also, the “Bacterial Biotransformation” value in [4], in [5] and in data set [6] was “Compound NOT metabolized” in each case.

Take `C#C[C@]1(OC(C)=O)CC[C@H]2[C@@H]3CCC4=CC(=O)CC[C@@H]4[C@H]3CC[C@@]21C` [NORETHINDRONE ACETATE]: the “Bacterial Biotransformation” value (at Acyltransferase; in data set [1]; at Nitroreductase; in [2]; in data set [3]; at Esterase) was “Compound NOT metabolized” in each case. The “Bacterial Biotransformation” value is on record as “Compound NOT metabolized” in data set [4], “Compound NOT metabolized” in data set [5] and “Compound metabolized” in data set [6].

Source of the values: ChEMBL document CHEMBL5303573, “Mapping human microbiome drug metabolism by gut bacteria and their genes” (Nature, 2019).
